ChEMBL document CHEMBL4219066, “Identification and Mitigation of Reactive Metabolites of 2-Aminoimidazole-Containing Microsomal Prostaglandin E Synthase-1 Inhibitors Terminated Due to Clinical Drug-Induced Liver Injury” (J Med Chem, 2018)
Blank lines part the entries; values can stand above or below the molecule they belong to.

Tests used:
Format in all cases: ADME, cell-based, Hepatocyte
[1] = Drug metabolism in rat hepatocytes assessed as metabolite formation at 2 uM after 4 hrs by LC-MS/MS analysis
[2] = Drug metabolism in human hepatocytes assessed as metabolite formation at 2 uM after 4 hrs by LC-MS/MS analysis
[3] = Drug level in human hepatocytes treated with 2-Chloro-N-(4-(hydroxymethyl)-1H-imidazol-2-yl)-5-(pivalamidomethyl)benzamide at 2 uM after 4 hrs by LC-MS/MS analysis
[4] = Drug level in human hepatocytes treated with 2-(2-Chloro-5-(pivalamidomethyl)benzamido)-N-phenyl-1Himidazole-4-carboxamide at 2 uM after 4 hrs by LC-MS/MS analysis
[5] = Drug level in rat hepatocytes treated with 2-(2-Chloro-5-(pivalamidomethyl)benzamido)-N-phenyl-1Himidazole-4-carboxamide at 2 uM after 4 hrs by LC-MS/MS analysis
[6] = Drug level in rat hepatocytes treated with 2-Chloro-N-(4-(hydroxymethyl)-1H-imidazol-2-yl)-5-(pivalamidomethyl)benzamide at 2 uM after 4 hrs by LC-MS/MS analysis
[7] = Drug metabolism in rat hepatocytes assessed as N-carbamimidoyl-2-chloro-5-(pivalamidomethyl)benzamide formation at 2 uM after 4 hrs by LC-MS/MS analysis
[8] = Drug metabolism in rat hepatocytes assessed as 2-chloro-N-(4-(hydroxymethyl)-5-methyl-1H-imidazol-2-yl)-5-(pivalamidomethyl)benzamide formation at 2 uM after 4 hrs by LC-MS/MS analysis
[9] = Drug metabolism in rat hepatocytes assessed as 2-chloro-N-(4,5-dimethyl-1H-imidazol-2-yl)-5-((3-hydroxy-2,2-dimethylpropanamido)methyl)benzamide formation at 2 uM after 4 hrs by LC-MS/MS analysis
[10] = Drug metabolism in human hepatocytes assessed as N-carbamimidoyl-2-chloro-5-(pivalamidomethyl)benzamide formation at 2 uM after 4 hrs by LC-MS/MS analysis
[11] = Drug metabolism in human hepatocytes assessed as 2-chloro-N-(4-(hydroxymethyl)-5-methyl-1H-imidazol-2-yl)-5-(pivalamidomethyl)benzamide formation at 2 uM after 4 hrs by LC-MS/MS analysis
[12] = Drug metabolism in human hepatocytes assessed as 2-chloro-N-(4,5-dimethyl-1H-imidazol-2-yl)-5-((3-hydroxy-2,2-dimethylpropanamido)methyl)benzamide formation at 2 uM after 4 hrs by LC-MS/MS analysis
[13] = Drug metabolism in rat hepatocytes assessed as 2-chloro-N-(4-(hydroxymethyl)-1H-imidazol-2-yl)-5-(pivalamidomethyl)benzamide formation at 2 uM after 4 hrs by LC-MS/MS analysis
[14] = Drug metabolism in human hepatocytes assessed as 2-chloro-N-(4-(hydroxymethyl)-1H-imidazol-2-yl)-5-(pivalamidomethyl)benzamide formation at 2 uM after 4 hrs by LC-MS/MS analysis
[15] = Drug metabolism in rat hepatocytes assessed as 2-chloro-5-((3-hydroxy-2,2-dimethylpropanamido)methyl)-N-(4-methyl-1H-imidazol-2-yl)benzamide formation at 2 uM after 4 hrs by LC-MS/MS analysis
[16] = Drug metabolism in human hepatocytes assessed as 2-chloro-5-((3-hydroxy-2,2-dimethylpropanamido)methyl)-N-(4-methyl-1H-imidazol-2-yl)benzamide formation at 2 uM after 4 hrs by LC-MS/MS analysis

Drug metabolism [1]: Metabolite_Notdetected
Drug metabolism [2]: Metabolite_Notdetected
Compound: CC(C)(C)C(=O)NCc1ccc(Cl)c(C(=O)Nc2nc(C(N)=O)c[nH]2)c1

Drug metabolism [3]: Metabolite_Detected
Drug metabolism [4]: Metabolite_Detected
Drug metabolism [5]: Metabolite_Detected
Drug metabolism [6]: Metabolite_Detected
Compound: CC(C)(C)C(=O)NCc1ccc(Cl)c(C(=O)Nc2nc(C(=O)O)c[nH]2)c1

Drug metabolism [7]: Metabolite_Detected
Drug metabolism [8]: Metabolite_Detected
Drug metabolism [9]: Metabolite_Detected
Drug metabolism [10]: Metabolite_Detected
Drug metabolism [11]: Metabolite_Detected
Drug metabolism [12]: Metabolite_Detected
Compound: Cc1nc(NC(=O)c2cc(CNC(=O)C(C)(C)C)ccc2Cl)[nH]c1C

Drug metabolism [13]: Metabolite_Detected
Drug metabolism [7]: Metabolite_Detected
Drug metabolism [14]: Metabolite_Detected
Drug metabolism [10]: Metabolite_Detected
Drug metabolism [15]: Metabolite_Detected
Drug metabolism [16]: Metabolite_Detected
Compound: Cc1c[nH]c(NC(=O)c2cc(CNC(=O)C(C)(C)C)ccc2Cl)n1
